# doi:10.1101/2021.10.04.463106, “A high throughput screening assay for inhibitors of SARS-CoV-2 pseudotyped particle entry” (bioRxiv, 2021)
# Where two headings read alike, the source gives them in different places.
# What was measured:
# Experiment in all cases: microbe, parasite or virus in culture
# Assay type in all cases: cell-based
# [1] = tested on: SARS-CoV-2-S PP (Wuhan-Hu-1 spike)
# [2] = tested on: SARS-CoV-2-S PP (B.1.1.7 spike variant)
# [3] = tested on: SARS-CoV-2-S PP (B.1.351 spike variant)
# [4] = Severe acute respiratory syndrome coronavirus 2, read-out: EC50, Wuhan-Hu-1 PP
# [5] = Severe acute respiratory syndrome coronavirus 2, read-out: EC50, B.1.1.7 PP
# [6] = Severe acute respiratory syndrome coronavirus 2, read-out: EC50, B.1.351 PP
Compound,"EC50 [1, 4]","EC50 [2, 5]","EC50 [3, 6]","EC50 ([1]; Severe acute respiratory syndrome coronavirus 2, read-out: EC50 in Wuhan-Hu-1 SARS-CoV-2-S PP entry assay)",shift in potency between the Wuhan-Hu-1 spike sequence and the B.1.1.7 spike variant [2],"EC50 ([2]; Severe acute respiratory syndrome coronavirus 2, read-out: EC50 in B.1.1.7 SARS-CoV-2-S PP entry assay)","EC50 ([3]; Severe acute respiratory syndrome coronavirus 2, read-out: EC50 in B.1.351 SARS-CoV-2-S PP entry assay)"
"CCOC(=O)[C@H]1O[C@@H]1C(=O)N[C@@H](CC(C)C)C(=O)NCCC(C)C [Aloxistatin, aloxistatin]",800 nM,460 nM,1210 nM,,,,
"CCCC[C@@H](C=O)NC(=O)[C@H](CC(C)C)NC(=O)OCc1ccccc1 [Calpeptin, calpeptin]",870 nM,310 nM,1070 nM,,,,
"COc1cc(N2CCC(N3CCN(C)CC3)CC2)ccc1Nc1ncc(Cl)c(Nc2ccccc2P(C)(C)=O)n1 [Brigatinib, brigatinib]",38 nM,54 nM,23 nM,,,,
"Cc1cccc(/C=N/Nc2cc(N3CCOCC3)nc(OCCc3ccccn3)n2)c1 [Apilimod, apilimod]",,,,9.2 nM,7 fold,1.3 nM,4.7 nM
